According to PubChem BioAssay (NCI):
“And” between values parts separate entries of the source, which are not always exact repeats. Equal entries are not always repeated.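 In this assay, cells in 96-well plates receive the compound at five concentrations for 48 hours. Endpoints are linearly interpolated between the surrounding concentrations. GI50 marks 50% less growth. The concentration for full growth arrest is given as TGI.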

Legend:
Test in all cases: NCI anticancer screen, dose series, 48 h
[1] = tested on: HOP-62 NSCLC
[2] = tested on: LOX IMVI melanoma
[3] = tested on: NCI-H23 lung
[4] = tested on: SK-MEL-28 melanoma
[5] = tested on: HCC-2998 colon
[6] = tested on: SK-OV-3 ovarian
[7] = tested on: UACC-62 melanoma
[8] = tested on: MALME-3M melanoma
[9] = tested on: SF-539 CNS
[10] = tested on: NCI-H522 lung

SMILES	GI50 [1]	TGI [1]	GI50 [2]	TGI [2]	GI50 [3]	TGI [3]	GI50 [4]	TGI [4]	GI50 [5]	TGI [5]	GI50 [6]	TGI [6]	GI50 [7]	TGI [7]	GI50 [8]	TGI [8]	GI50 [9]	TGI [9]	GI50 [10] [µM]	TGI [10] [µM]
COc1ccc(-n2cc(-c3ccc(Cl)cc3)[nH]c2=S)cc1Cl	32.4 µM	92.2 µM	94 µM	> 100 µM	84.4 µM	> 100 µM	36.5 µM	> 100 µM	57.4 µM	> 100 µM	23.6 µM	52.6 µM	83.5 µM	> 100 µM	> 100 µM	> 100 µM	19.9 µM	44.3 µM	59.4	> 100
CC(=O)OC1CC[C@@]2(C)C(CC(OC3OC(CO)C(O)C(O)C3O)[C@]3(C)C2CCC24CC23CC[C@H]4C(C)CC(O)[C@@H](O)C(C)(C)O)C1(C)C (stereo not given in full)		40.1 µM		15.5 µM		> 50 µM		17.4 µM		25.5 µM		> 50 µM		16.6 µM		18.8 µM		19.1 µM		16.2
Cc1cccc2c1NC(c1c(C)[nH]c3ccccc13)C2 (stereo not given)		> 100 µM		> 100 µM		> 100 µM		> 100 µM		> 100 µM		> 100 µM		> 100 µM		> 100 µM		> 100 µM		> 100
Cc1c(Br)cccc1NC(=O)c1sc2nc3c(cc2c1N)CN(Cc1ccccc1)CC3	0.204 µM	4.44 µM	0.336 µM	> 50 µM	0.343 µM	> 50 µM	0.977 µM	> 50 µM	1.6 µM	> 50 µM	0.294 µM	22.7 µM	0.372 µM	> 50 µM	0.256 µM	6.04 µM	0.158 µM	0.858 µM	0.108	> 50
NC(N)=Nc1nc2cc(N)ccc2o1		> 100 µM		> 100 µM		> 100 µM		> 100 µM		> 100 µM		> 100 µM		> 100 µM		> 100 µM		> 100 µM		> 100
CC([C@H]1CCC2C3CCC4C(=O)C(NC=O)=CC[C@]4(C)C3CC[C@@]21C)N(C)C (stereo not given in full)	2.01 µM	4.56 µM	1.78 µM	4.02 µM	4.42 µM	18.7 µM	1.86 µM	3.55 µM	4.09 µM	14.7 µM	4.03 µM	12.9 µM	1.94 µM	3.98 µM	2.34 µM	5.96 µM	1.58 µM	3.14 µM	8.2	> 31.2
COc1cc(Oc2cnc3cc(N)cc(N)c3n2)cc(OC)c1OC	48.1 µM	> 100 µM	33.4 µM	> 100 µM	31.4 µM	> 100 µM	36.6 µM	> 100 µM	15.6 µM	32.2 µM	91.2 µM	> 100 µM	35.4 µM	> 100 µM	59.9 µM	> 100 µM	46.2 µM	> 100 µM	> 100	> 100
CC(C)n1c2c(c3ccccc3c1=O)C(=O)c1ccccc1-2		> 100 µM		> 100 µM		> 100 µM		> 100 µM		> 100 µM		> 100 µM		> 100 µM		> 100 µM		> 100 µM		> 100
N#CC1(Cc2ccccc2Cl)c2ccccc2C=CN1C(=O)c1ccccc1 (stereo not given)		> 100 µM		> 100 µM		> 100 µM		> 100 µM		> 100 µM		> 100 µM		> 100 µM		> 100 µM		> 100 µM		> 100
COC(=O)c1nc(N)[nH]c(=O)c1-c1ccc(Cl)cc1		> 100 µM		> 100 µM		> 100 µM		> 100 µM		> 100 µM		> 100 µM		> 100 µM		> 100 µM		> 100 µM		> 100
COc1cc(C2C3=C(COC3=O)N(CCO)c3cc4c(cc32)OCCO4)cc(OC)c1O (stereo not given)	2.72 µM	> 50 µM	2.49 µM	> 50 µM	2.46 µM	> 50 µM	1.15 µM	> 50 µM	2.04 µM	19 µM	2.29 µM	> 50 µM	0.961 µM	> 50 µM	1.23 µM	> 50 µM	1.22 µM	> 14.8 µM	0.182	2.8
CN1CCN(c2nc(NCCNc3ccnc4cc(Cl)ccc34)c3ccccc3n2)CC1	2.73 µM	14.2 µM	1.63 µM	3.34 µM	3.64 µM	15.2 µM	1.83 µM	3.39 µM	3.11 µM	10.4 µM	3.18 µM	11.7 µM	1.82 µM	3.39 µM	2 µM	3.76 µM	1.77 µM	3.34 µM	1.64	3.8
O=C(NCCc1ccccc1)C(c1csc2ccccc12)N(C(=O)CCl)c1ccc(-c2cnco2)cc1 (stereo not given)	0.347 µM	1.07 µM	< 0.01 µM		0.0209 µM	0.0508 µM	1.69 µM	3.12 µM	1.69 µM	3.22 µM	1.25 µM	2.69 µM	1.3 µM	2.85 µM	0.146 µM	0.308 µM	0.126 µM	0.257 µM	0.0134	0.0295
CCSc1sc(-c2ccc(C)cc2)nc1[P+](c1ccccc1)(c1ccccc1)c1ccccc1	0.316 µM	1.38 µM	0.267 µM	0.913 µM	0.273 µM	0.881 µM	0.532 µM	1.82 µM	0.47 µM	1.62 µM	0.262 µM	0.898 µM	0.292 µM	1.24 µM	0.288 µM	1.06 µM	0.394 µM	1.53 µM	0.304	1.23
CCCCCCCC(=O)SCC/C=C/[C@@H]1CC(=O)NCc2cccc(n2)CN(Cc2ccc(Cl)cc2)CC(=O)N[C@@H](C(C)C)C(=O)O1	5.4 µM	44.4 µM	5.33 µM	19.6 µM	13.7 µM	> 100 µM	5.04 µM	> 100 µM	13.8 µM	43.7 µM	6.41 µM	42.7 µM	5.85 µM	26.5 µM	3.12 µM	> 100 µM	16.3 µM	> 100 µM	6.82	54.1
Cn1c(=O)c(C2c3ccccc3Oc3c2c(=O)n(C)c2ccccc32)c(O)c2ccccc21 (stereo not given)		> 100 µM		> 100 µM		> 100 µM		> 100 µM		> 100 µM		> 100 µM		> 100 µM		> 100 µM		> 100 µM		54.6
COC(=O)CC[C@@H](NC(=O)C(C)NC(=O)COC1C(O)C(COC(=O)CCCCCCCCCCNC(=O)c2ccc([N+](=O)[O-])c3[nH]c4cc(Br)ccc4c(=O)c23)OC(OCc2ccccc2)C1NC(C)=O)C(N)=O (stereo not given in full)		> 100 µM		> 100 µM		> 100 µM		> 100 µM		93.2 µM		> 100 µM		> 100 µM		> 100 µM		> 100 µM		> 100
O=C(O)C(=O)/C=C\c1ccc(Cl)cc1		> 100 µM		> 100 µM		> 100 µM		> 100 µM		> 100 µM		> 100 µM		> 100 µM		> 100 µM		> 100 µM		> 100
CCCCc1c2c(nc3c1CCc1cc(C=O)c(N)nc1-3)/C(=C/c1ccccc1)CCC2		> 100 µM		> 100 µM		> 100 µM		> 100 µM		45.1 µM		> 100 µM		> 100 µM		> 100 µM		> 100 µM		> 100
COC(=O)c1ccc2c(c1)[n+](=O)c(C(C)=O)c(C(F)(F)F)n2[O-]	1.94 µM	3.69 µM	1.7 µM	3.2 µM	1.81 µM	3.38 µM	4.31 µM	13.2 µM	1.78 µM	3.18 µM	2.22 µM	4.48 µM	1.71 µM	3.14 µM	1.96 µM	3.79 µM	1.85 µM	3.36 µM	1.66	3.28
NS(=O)(=O)OC[C@H]1O[C@@H](n2cnc3c(N[C@H]4CCc5ccccc54)ncnc32)[C@H](O)[C@@H]1O	0.0569 µM	0.485 µM	0.0209 µM	0.0572 µM	0.185 µM	1.26 µM	0.047 µM	0.276 µM	0.157 µM	0.331 µM	0.234 µM	0.644 µM	0.0451 µM	0.374 µM	0.195 µM	0.447 µM	0.0351 µM	0.117 µM	0.0271	0.192
Nc1ncnc2c1ncn2C1OC(CO)C(O)C1O (stereo not given)	11.7 µM	> 100 µM and 184 µM and 47.9 µM	5.73 µM	> 450 µM		> 100 µM and > 450 µM and 77.3 µM	> 100 µM and 313 µM and 62.3 µM	> 450 µM	1.61 µM		> 100 µM and 296 µM and 34 µM	> 450 µM	> 100 µM and 247 µM and 27.2 µM	> 450 µM	51.3 µM	> 422 µM	31.6 µM	> 450 µM		> 295
CCOc1cccc2cccnc12		> 100 µM		> 100 µM		> 100 µM		> 100 µM		> 100 µM		> 100 µM		> 100 µM		> 100 µM		> 100 µM		> 100
O=C(/C=C(\O)C(=O)O)/C=C(\O)c1ccc(Cl)cc1		> 100 µM		> 100 µM		> 100 µM		> 100 µM		> 100 µM		> 100 µM		> 100 µM		> 100 µM		> 100 µM		> 100
COc1ccc(/C(C#N)=C/c2nc3c(N4CCOCC4)nc(Cl)nc3n2C)cc1OC	< 0.01 µM	2.53 µM	< 0.01 µM	1.15 µM	< 0.01 µM	2.74 µM	1.1 µM	2.43 µM	0.0163 µM	1.22 µM	< 0.01 µM	5.52 µM	< 0.01 µM	1.68 µM	< 0.0152 µM	2.01 µM	< 0.01 µM	< 0.01 µM	< 0.01	1.28
CCCCCc1c(C)[nH]c(/C=C2\N=C(c3ccc[nH]3)C=C2Oc2ccc(OC)cc2)c1C	0.159 µM and 0.0768 µM	1.69 µM and 1.49 µM	0.0406 µM and 0.0197 µM	0.289 µM and 0.0534 µM	0.258 µM and 0.0806 µM	2.84 µM and 1.55 µM	0.231 µM and 0.0512 µM	0.904 µM and 0.281 µM	0.0963 µM and 0.0369 µM	6.44 µM and 1.91 µM	0.392 µM and 0.141 µM	2.25 µM and 1.39 µM	0.112 µM and 0.0271 µM	0.272 µM and 0.0725 µM	0.262 µM and 0.0744 µM	1.34 µM and 0.261 µM	0.156 µM and 0.0431 µM	0.551 µM and 0.212 µM	0.0135	0.19
COc1ccc(C2CC(c3cccc(Nc4ccnc5cc(Cl)ccc45)c3)=NN2c2ccccc2)cc1 (stereo not given)	0.949 µM	21.3 µM	0.338 µM	11.1 µM	8.78 µM	59.7 µM	4.41 µM	32.5 µM	0.535 µM	11.5 µM	9.62 µM	76.5 µM	0.051 µM	11.7 µM	10.7 µM	42.7 µM	1.15 µM	3.25 µM	0.952	13.8
Oc1ccc(Br)cc1CN1CCN(Cc2ccc(Cl)cc2)CC1	36.5 µM	> 100 µM	16.3 µM	36.9 µM	16.5 µM	> 100 µM	24 µM	> 100 µM	30.8 µM	> 100 µM	31 µM	> 100 µM	17.6 µM	> 100 µM	14.7 µM	45.8 µM	32 µM	> 100 µM	13.3	39.2
NC(=O)NC1=NCCC(=O)N1CCc1c[nH]c2ccccc12		37.6 µM		26.8 µM		43.4 µM		41.2 µM		44.4 µM		> 100 µM		36.9 µM		36.9 µM		30.9 µM		52.1
CC(C)CCC[C@@H](C)C1CCC2[C@@H]3CC=C4C[C@@H](OC(=O)CCC(=O)NCC[N+](C)(C)CCCS(=O)(=O)[O-])CC[C@]4(C)C3CC[C@@]21C (stereo not given in full)		33.9 µM		33.1 µM				32.9 µM		37.5 µM		> 100 µM		50.3 µM		43.7 µM		31.4 µM		73
